According to patent US12600732B2, “Bifunctional compounds for degrading BTK via ubiquitin proteosome pathway” (NURIX THERAPEUTICS, INC., priority 2019, dated 2026):
Where two headings read alike, the source gives them in different places.

Tests used:
[1] = PK data for BTK CTMs (in vivo plasma concentrations); details: for Vd: read-out: Volume of Distribution
Text: The present example evaluates in vivo plasma concentrations of BTK CTMs to develop PK-PD-efficacy relationship and predict human exposure.

Aiolos = assay: Non-human primate (cyno) DRF PD, Aiolos remaining in T cells; type: in vivo; details: blood, 24 h after previous dose
Description: (§1) This example evaluates potency and tolerability of BTK CTMs following multiple, consecutive days of dosing and examines potency of compounds for BTK and Aiolos degradation. The data in the table below is from a study in which animals were dosed daily with the designated oral dose. Analysis for BTK and Aiolos levels was performed twenty-four hours following the previous dose.

BTK [2] = assay: Non-human primate (cyno) DRF PD, BTK remaining in B cells; type: in vivo; details: blood, 24 h after previous dose
Description: as §1

[3] = Compound plasma exposure in cyno DRF study; type: in vivo; details: cynomolgus monkey, po
Description: This example evaluates compound plasma concentration which results in in vivo BTK and/or Aiolos degradation in cyno. The data in the table below is from a study in which animals were dosed daily with the designated oral dose. Analysis for compound concentration in plasma was performed twenty-four hours following the previous dose.

BTK [4] = target: BTK (Homo sapiens, UniProt Q06187); assay: BTK degradation in human PBMCs (BTK flow cytometry), primary human B cells; type: cell-based; parameters: endogenous in cells; host or cells: human PBMC (B cells) from healthy donors
Description: Human peripheral blood mononuclear cells (PBMC) were obtained either: 1) by using Ficoll-Paque™ (GE Healthcare) for separation of peripheral blood hematopoietic cells from buffy coats of healthy human donors; or 2) directly from LeukoPak donations. PBMCs were grown at 37° C. and 5% CO2 in RPMI supplemented with 10% heat-inactivated FBS (Corning Premium Fetal Bovine Serum from Fisher, MT35015CV), 1× Penicillin/Streptomycin, and 2 mM Glutamine.
BTK Degradation in Human PBMCs (BTK Flow Cytometry)
This example evaluates the potency of CTMs in primary human B cells, rather than transformed or immortalized cancer cell lines. Primary cells are believed to be a physiologically relevant model. Thus, this example confirms the potency, kinetics, and level of BTK degradation in these cells in addition to the cell line models. Furthermore, this assay establishes that it is possible to monitor BTK degradation in primary human B cells, which can serve as a clinical biomarker.

Rec-1 cells = assay: Cell viability assay (CellTiter-Glo), Rec-1 cells; type: cell-based
Text: This example evaluates effects of CTM-mediated degradation on cell viability. […] Mino and Rec-1 are models of Mantle Cell Lymphoma, which is sensitive to IMiDs.

[5] = system: B cell receptor (BCR) signaling; assay: B cell activation assay (flow cytometry), human B cells; type: cell-based; details: treatment 4 h, IgM stimulation 18 h
Description: Compound was present throughout the stimulation. Cells were stained with Live/Dead dye (Fisher L34976) and then fluorophore-conjugated antibodies against CD20 (Biolegend 302330), CD3 (BD Pharmingen 557705), CD86 (Biolegend 305416) and CD69 (Biolegend 310906). Stained cells were fixed in PFA and run on an Attune N×T Acoustic Focusing Flow Cytometer (Thermo-Fisher A29004), and data was analyzed using FlowJo (v10.5.3) and GraphPad Prism (v7.00) software. Single live lymphocytes were gated for B cells (CD20+CD3−) and T cells (CD3+CD20−), and the geometric mean fluorescence intensity (MFI) of CD86 and CD69 was calculated for each population. The MFI of the unstimulated sample was used to quantify baseline activation.
This example evaluates whether CTM treatment affects B cell receptor (BCR) signaling. BTK is activated downstream of the B cell receptor and leads to upregulation of activation markers CD86 and CD69 on the surface of B cells.

[6] = 10 mg/kg PO daily, 1 day of dosing
[7] = 10 mg/kg PO daily, 14 days of dosing
[8] = 30 mg/kg PO daily, 1 day of dosing
[9] = 30 mg/kg PO daily, 14 days of dosing
[10] = 100 mg/kg PO daily, 1 day of dosing
[11] = 100 mg/kg PO daily, 14 days of dosing
[12] = 10 mg/kg, 10 mg/kg PO, 14 days of dosing
[13] = 30 mg/kg, 30 mg/kg PO, 14 days of dosing
[14] = Rat Sprague-Dawley, 10 mg/kg PO

Chain of BTK (Homo sapiens, UniProt Q06187) (Q06187 whole entry): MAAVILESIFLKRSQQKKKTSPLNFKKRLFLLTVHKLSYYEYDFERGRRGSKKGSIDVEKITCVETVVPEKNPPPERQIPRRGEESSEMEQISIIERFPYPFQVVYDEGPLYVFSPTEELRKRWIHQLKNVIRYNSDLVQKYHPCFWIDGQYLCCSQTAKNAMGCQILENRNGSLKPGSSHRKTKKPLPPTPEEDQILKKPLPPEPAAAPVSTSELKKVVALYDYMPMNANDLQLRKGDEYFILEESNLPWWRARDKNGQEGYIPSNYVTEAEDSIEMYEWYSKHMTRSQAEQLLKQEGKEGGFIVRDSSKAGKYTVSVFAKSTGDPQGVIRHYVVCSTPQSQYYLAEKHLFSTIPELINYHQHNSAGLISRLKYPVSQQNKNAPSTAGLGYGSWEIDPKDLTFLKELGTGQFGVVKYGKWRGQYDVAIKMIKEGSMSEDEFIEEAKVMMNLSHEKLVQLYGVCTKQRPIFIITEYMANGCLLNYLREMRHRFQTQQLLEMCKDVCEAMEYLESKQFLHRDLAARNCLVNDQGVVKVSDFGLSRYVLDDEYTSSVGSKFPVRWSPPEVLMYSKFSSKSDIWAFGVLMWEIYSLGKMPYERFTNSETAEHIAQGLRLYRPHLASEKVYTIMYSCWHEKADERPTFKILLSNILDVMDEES

Work on `CN1CCN([C@@H]2CCCN(c3cnc(C(N)=O)c(Nc4ccc(C5CCN(C[C@H]6CCN(c7ccc8c(c7)C(=O)N(C7CCC(=O)NC7=O)C8=O)C6)CC5)cc4)n3)C2)C1=O` (stereo partly drawn) [Compound 44] yielded an AUC ([1]; Mouse Balb/c, 1 mg/kg IV) of 4.07 µM·h, a clearance ([1]; Mouse Balb/c, 1 mg/kg IV) of 5.1 mL/min/kg and a Vd ([1]; Mouse Balb/c, 1 mg/kg IV) of 0.69 L/kg. For the same compound, the AUC ([1]; Mouse Balb/c, 10 mg/kg PO) was 4 µM·h, the bioavailability ([1]; Mouse Balb/c, 10 mg/kg PO) was 10% and the “% Aiolos Remaining in T cells” value (Aiolos; [6]) was 96%. The “% Aiolos Remaining in T cells” value (Aiolos; [7]) was 71%, the “% Aiolos Remaining in T cells” value (Aiolos; [8]) was 99% and the “% Aiolos Remaining in T cells” value (Aiolos; [9]) was 69%. For the same compound, the “% Aiolos Remaining in T cells” value (Aiolos; [10]) was 96%, the “% Aiolos Remaining in T cells” value (Aiolos; [11]) was 63% and the “% BTK Remaining in B cells” value (BTK [2]; [6]) was 35%. For the same compound, the “% BTK Remaining in B cells” value (BTK [2]; [7]) was 16%, the “% BTK Remaining in B cells” value (BTK [2]; [8]) was 31% and the “% BTK Remaining in B cells” value (BTK [2]; [9]) was 10%. For the same compound, the “% BTK Remaining in B cells” value (BTK [2]; [10]) was 14%, the “% BTK Remaining in B cells” value (BTK [2]; [11]) was 6% and the Cmax ([3]; 10 mg/kg, 10 mg/kg PO, 1 day of dosing) was 10.6 nM. It also gave an AUC [3, 12] of 0.467 µM·h, a Cmax [3, 12] of 34 nM and a Cmax ([3]; 30 mg/kg, 30 mg/kg PO, 1 day of dosing) of 18 nM. It also gave an AUC [3, 13] of 0.794 µM·h, a Cmax [3, 13] of 55.5 nM and an AUC ([3]; 100 mg/kg, 100 mg/kg PO, 1 day of dosing) of 0.294 µM·h. It also gave a Cmax ([3]; 100 mg/kg, 100 mg/kg PO, 14 days of dosing) of 94.2 nM, a DC50 (BTK [4]; treatment time 1 h) of 6 nM and a DC50 (BTK [4]; treatment time 2 h) of 3 nM. The DC50 (BTK [4]; treatment time 4 h) was 0.51 nM, the EC50 (Rec-1 cells; Homo sapiens, Rec1, treatment time 72 h) was 0.82 nM and the “EMAX (% viable cells)” value (Rec-1 cells; treatment time 72 h) was 37%. It also gave an EC50 ([5]; read-out: CD69 EC50) of 0.5 nM and an EC50 ([5]; read-out: CD86 EC50) of 0.5 nM.

For `CN1CCN([C@@H]2CCCN(c3cnc(C(N)=O)c(Nc4ccc(C5CCN(CC6CCN(c7ccc8c(=O)n(C9CCC(=O)NC9=O)ccc8c7)CC6)CC5)cc4)n3)C2)C1=O` (stereo partly drawn) [Compound 72], the AUC ([1]; Mouse Balb/c, 1 mg/kg IV) was 3.96 µM·h, the clearance ([1]; Mouse Balb/c, 1 mg/kg IV) was 5.1 mL/min/kg and the Vd ([1]; Mouse Balb/c, 1 mg/kg IV) was 0.68 L/kg. It also gave an AUC ([1]; Mouse Balb/c, 10 mg/kg PO) of 2.9 µM·h and a bioavailability ([1]; Mouse Balb/c, 10 mg/kg PO) of 7%.

Compound `CN1CCN([C@@H]2CCCN(c3cnc(C(N)=O)c(Nc4ccc(C5CCN(CC6CCN(c7ccc(-c8nn(C9CCC(=O)NC9=O)c(=O)n8C)cc7)CC6)CC5)cc4)n3)C2)C1=O` (stereo partly drawn) [Compound 121] has an AUC ([1]; Mouse Balb/c, 1 mg/kg IV) of 2.87 µM·h, a clearance ([1]; Mouse Balb/c, 1 mg/kg IV) of 6.6 mL/min/kg and a Vd ([1]; Mouse Balb/c, 1 mg/kg IV) of 0.77 L/kg. The AUC ([1]; Mouse Balb/c, 30 mg/kg PO) was 2.22 µM·h, the bioavailability ([1]; Mouse Balb/c, 30 mg/kg PO) was 11% and the AUC ([1]; Rat Sprague-Dawley, 1 mg/kg IV) was 0.919 µM·h. It also gave a clearance ([1]; Rat Sprague-Dawley, 1 mg/kg IV) of 20 mL/min/kg, a Vd ([1]; Rat Sprague-Dawley, 1 mg/kg IV) of 3.12 L/kg and an AUC [1, 14] of 0.083 µM·h. It also gave a bioavailability [1, 14] of 1% and an AUC ([1]; Rat Sprague-Dawley, 30 mg/kg PO) of 0.73 µM·h.
